Laboratory results taken from patent US10603345B2, “Pharmaceutical composition for treating respiratory disease” (Kunming Institute of Botany, The Chinese Academy of Sciences, priority 2015, dated 2020).

What was measured:
Type in all cases: in vivo
[1] = tested on: IL-6 in serum of COPD model mouse; assay: Effect on IL-6 in serum of COPD model mouse; details: ELISA, ig 7 d, dose/kg: dexamethasone 1 mg, Test group 1 50, 2 25, 3 10, picrinine 10, vallesamine 6, scholaricine 7, 19-epi-scholaricine 2 mg, x ± SD
Procedure: (§1) Animal source: 25˜30 g male ICR mouse, from laboratory animal department of Kunming Medical University, License No. SCXK (Dian) 2011-0004.
(§2) Method and route: lipopolysaccharide (LPS) plus smoke exposure was used for 30 days to induce mouse chronic obstructive pulmonary disease model; and after intragastrical administration for 7 d at a dose of 20 mL/kg, the animal was sacrificed at the eighth day.
(§3) Picrinine group (10 mg/kg), Vallesamine group (6.0 mg/kg), Scholaricine group (7.0 mg/kg), 19-epischolaricine group (2.0 mg/kg).
(§4) Sample preparation: all the samples were prepared by using 0.5% carboxymethylcellulose sodium (0.5% CMC-Na).
Group and dose: in Test group 1, the ratio of picrinine, vallesamine, scholaricine and 19-epischolaricine by weight was 38:30:27:7, and the other groups and doses thereof were as described in Example 10.
Test index: IL-6 in serum was used as index, and was determined by enzyme linked immunosorbent assay.

[2] = tested on: SOD in serum and BALF of asthma model mouse; assay: Effect on SOD in serum and BALF of asthma model mouse; details: ig 7 d, dose/kg: dexamethasone 2.0 mg, Test group 1 50, 2 25, picrinine 5.0, vallesamine 3.0, scholaricine 3.0, 19-epi-scholaricine 3.5 mg, x ± SD
Procedure: as §1
(§5) Method and route: ovalbumin (OVA) was used to induce mouse asthma model, and after intragastrical administration for 7 d at a dose of 20 mL/kg, the animal was sacrificed at the eighth day.
(§6) Test group 1: picrinine, vallesamine, scholaricine and 19-epischolaricine prepared in Example 1.7 were homogeneously mixed at different ratios by weight (50 mg/kg), Test group 2: the alkaloid composition prepared in Example 1.4 (25 mg/kg). […]
as §4
Group and dose: in Test group 1, the ratio of picrinine, vallesamine, scholaricine and 19-epischolaricine by weight was 12:10:9:2, and the other groups and doses thereof were as described in Example 11.
Test index: SOD in serum and BALF was used as index, and was determined by xanthine oxidase method.

[3] = tested on: white blood cell count and classification in BALF of COPD model mouse; assay: Effect on white blood cell count and classification in BALF of COPD model mouse; details: COPD mouse (LPS plus smoke exposure 30 days), ig 7 d, dose/kg: dexamethasone 1 mg, Test group 1 50, 2 25, 3 10, picrinine 10, vallesamine 6, scholaricine 7, 19-epi-scholaricine 2 mg, x ± SD
Procedure: as §1, §2, §3, §4
Group and dose: in Test group 1, the ratio of picrinine, vallesamine, scholaricine and 19-epischolaricine by weight was 48:40:29:10, and the other groups and doses thereof were as described in Example 10.
Test index: total number of white blood cells and inflammatory cell classification in bronchoalveolar lavage fluid (BALF) were used as indexes, and were determined by full-automatic hemocytometer.

[4] = tested on: IL-10 in BALF of asthma model mouse; assay: Effect on IL-10 in BALF of asthma model mouse; details: ELISA, ig 7 d, dose/kg: dexamethasone 2.0 mg, Test group 1 50, 2 25, picrinine 5.0, vallesamine 3.0, scholaricine 3.0, 19-epi-scholaricine 3.5 mg, x ± SD
Procedure: as §1, §5, §6, §4
Group and dose: in Test group 1, the ratio of picrinine, vallesamine, scholaricine and 19-epischolaricine by weight was 18:13:14:3, and the other groups and doses thereof were as described in Example 11.
Test index: IL-10 in BALF was used as index, and was determined by enzyme linked immunosorbent assay.

[5] = tested on: WBC count and eosinophil percentage in BALF of asthma model mouse; assay: Effect on WBC count and eosinophil percentage in BALF of asthma model mouse; details: OVA-induced asthma mouse, ig 7 d, dose/kg: dexamethasone 2 mg, Test group 1 50, 2 25, picrinine 5.0, vallesamine 3.0, scholaricine 3.0, 19-epi-scholaricine 3.5 mg, x ± SD
Procedure: as §1, §5, §6, §4
Group and dose: in Test group 1, the ratio of picrinine, vallesamine, scholaricine and 19-epischolaricine by weight was 41:45:28:7, and the other groups and doses thereof were as described in Example 11.
Test index: number of white blood cells (WBCs) and number of eosinophil in bronchoalveolar lavage fluid (BALF) were used as index, and were determined by full-automatic hemocytometer.

[6] = tested on: Eotaxin in serum of asthma model mouse; assay: Effect on Eotaxin in serum of asthma model mouse; details: ELISA, ig 7 d, dose/kg: dexamethasone 2.0 mg, Test group 1 50, 2 25, picrinine 5.0, vallesamine 3.0, scholaricine 3.0, 19-epi-scholaricine 3.5 mg, x ± SD
Procedure: as §1, §5, §6, §4
Group and dose: in Test group 1, the ratio of picrinine, vallesamine, scholaricine and 19-epischolaricine by weight was 37:42:30:8, and the other groups and doses thereof were as described in Example 11.
Test index: eosinophil chemotactic factor (Eotaxin) in serum was used as index, and was determined by enzyme linked immunosorbent assay.

[7] = tested on: CRP in serum in COPD model mouse; assay: Effect on CRP in serum in COPD model mouse; details: ELISA, ig 7 d, dose/kg: dexamethasone 1 mg, Test group 1 50, 2 25, 3 10, picrinine 10, vallesamine 6, scholaricine 7, 19-epi-scholaricine 2 mg, x ± SD
Procedure: as §1, §2, §3, §4
Group and dose: in Test group 1, the ratio of picrinine, vallesamine, scholaricine and 19-epischolaricine by weight was 25:19:20:4, and the other groups and doses thereof were as described in Example 10.
Test index: CRP in serum was used as index, and was determined by enzyme linked immunosorbent assay.

[8] = tested on: IgE in serum of asthma model mouse; assay: Effect on IgE in serum of asthma model mouse; details: ELISA, ig 7 d, dose/kg: dexamethasone 2.0 mg, Test group 1 50, 2 25, picrinine 5.0, vallesamine 3.0, scholaricine 3.0, 19-epi-scholaricine 3.5 mg, x ± SD
Procedure: as §1, §5, §6, §4
Group and dose: In Test group 1, the ratio of picrinine, vallesamine, scholaricine and 19-epischolaricine by weight was 30:33:27:6, and the other groups and doses thereof were as described in Example 11.
Test index: immunoglobulin IgE in serum was used as index, and was determined by enzyme linked immunosorbent assay.

[9] = tested on: MDA in serum and BALF of asthma model mouse; assay: Effect on MDA in serum and BALF of asthma model mouse; details: ig 7 d, dose/kg: dexamethasone 2.0 mg, Test group 1 50, 2 25, picrinine 5.0, vallesamine 3.0, scholaricine 3.0, 19-epi-scholaricine 3.5 mg, x ± SD
Procedure: as §1, §5, §6, §4
Group and dose: in Test group 1, the ratio of picrinine, vallesamine, scholaricine and 19-epischolaricine by weight was 8:6:5:1, and the other groups and doses thereof were as described in Example 11.
Test index: MDA in serum and BALF was used as index, and was determined by thiobarbituric acid method.

[10] = tested on: IL-4 in BALF of asthma model mouse; assay: Effect on IL-4 in BALF of asthma model mouse; details: ELISA, ig 7 d, dose/kg: dexamethasone 2.0 mg, Test group 1 50, 2 25, picrinine 5.0, vallesamine 3.0, scholaricine 3.0, 19-epi-scholaricine 3.5 mg, x ± SD
Procedure: as §1, §5, §6, §4
Group and dose: in Test group 1, the ratio of picrinine, vallesamine, scholaricine and 19-epischolaricine by weight was 25:18:15:3, and the other groups and doses thereof were as described in Example 11. […]

[11] = tested on: SOD in serum and homogenate of COPD model mouse; assay: Effect on SOD in serum and homogenate of COPD model mouse; details: ig 7 d, dose/kg: dexamethasone 1 mg, Test group 1 50, 2 25, 3 10, picrinine 10, vallesamine 6, scholaricine 7, 19-epi-scholaricine 2 mg, x ± SD
Procedure: as §1, §2, §3, §4
Group and dose: in Test group 1, the ratio of picrinine, vallesamine, scholaricine and 19-epischolaricine by weight was 16:11:12:3, and the other groups and doses thereof were as described in Example 10.
Test index: SOD in serum and lung homogenate was used as index, and was determined by xanthine oxidase method.

[12] = tested on: MDA in serum and homogenate of COPD model mouse; assay: Effect on MDA in serum and homogenate of COPD model mouse; details: ig 7 d, dose/kg: dexamethasone 1 mg, Test group 1 50, 2 25, 3 10, picrinine 10, vallesamine 6, scholaricine 7, 19-epi-scholaricine 2 mg, x ± SD
Procedure: as §1, §2, §3, §4
Group and dose: in Test group 1, the ratio of picrinine, vallesamine, scholaricine and 19-epischolaricine by weight was 9:6:5:1, and the other groups and doses thereof were as described in Example 10.
Test index: MDA in serum and homogenate was used as index, and was determined by thibabituric acid method.

## C[C@@H]1C[C@H]2[C@@H]3CCC4=CC(=O)C=C[C@]4(C)[C@@]3(F)[C@@H](O)C[C@]2(C)[C@@]1(O)C(=O)CO [dexamethasone, reference compound]
[1]
  IL-6: 22.0 ± 2.0 pg/mL
[2]; BALF
  SOD lavage fluid: 76.57 ± 12.52 U/mL
[2]; serum
  SOD Serum: 74.83 ± 8.43 U/mL
[3]
  Leukocyte number: 1.1 ± 0.5 ×10^5/mL
  Neutrophil number: 0.53 ± 0.50 ×10^5/mL
[4]
  IL-10: 17.45 ± 5.60 pg/mL
[5]
  Eosinophil percentage: 4.32 ± 1.12 %
  Number of WBCs: 0.50 ± 0.17 ×10^9/L
[6]
  Eotaxin: 7.87 ± 0.45 pg/mL
[7]
  CRP: 22.3 ± 2.0 pg/mL
[8]
  IgE: 3.23 ± 0.53 g μg/mL
[9]; BALF
  MDA lavage fluid: 2.17 ± .17 nmol/mL
[9]; serum
  MDA Serum: 10.99 ± 2.38 nmol/mL
[10]
  IL-4: 9.96 ± 4.03 pg/mL
[11]; lung homogenate
  SOD homogenate: 63.92 ± 5.84 U/mL
[11]; serum
  SOD Serum: 86.85 ± 9.48 U/mL
[12]; lung homogenate
  MDA Homogenate: 6.23 ± 0.60 nmol/mL
[12]; serum
  MDA Serum: 14.04 ± 3.64 nmol/mL
